What was measured:
DBTRG-05MG = assay: cells; format: functional, cell-based, Homo sapiens; details: Homo sapiens, DBTRG-05MG;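 further: cell viability assay measuring growth inhibition of human DBTRG-05MG cells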
Description: SANGER: Inhibition of human DBTRG-05MG cell growth in a cell viability assay.

Daoy = assay: cells; format: functional, cell-based, Homo sapiens; details: Homo sapiens, Daoy
Description: SANGER: Inhibition of human Daoy cell growth in a cell viability assay.

EFO-27 = assay: cells; format: functional, cell-based, Homo sapiens; details: Homo sapiens, EFO-27;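 further: growth inhibition of EFO-27 cells, read out with a cell viability assay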
Description: SANGER: Inhibition of human EFO-27 cell growth in a cell viability assay.

EGI-1 = assay: cells; format: functional, cell-based, Homo sapiens; details: Homo sapiens, EGI-1;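 further: cell viability readout used to gauge growth inhibition of EGI-1 cells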
Description: SANGER: Inhibition of human EGI-1 cell growth in a cell viability assay.

EVSA-T = assay: cells; format: functional, cell-based, Homo sapiens; details: Homo sapiens, EVSA-T;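 further: growth inhibition of EVSA-T cells, read out with a cell viability assay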
Description: SANGER: Inhibition of human EVSA-T cell growth in a cell viability assay.

HCC1395 = assay: cells; format: functional, cell-based, Homo sapiens; details: Homo sapiens, HCC1395;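 further: growth inhibition of HCC1395 cells, read out by a cell viability assay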
Description: SANGER: Inhibition of human HCC1395 cell growth in a cell viability assay.

HCC1419 = assay: cells; format: functional, cell-based, Homo sapiens; details: Homo sapiens, HCC1419;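 further: growth inhibition of human HCC1419 cells, read out as cell viability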
Description: SANGER: Inhibition of human HCC1419 cell growth in a cell viability assay.

HCT-116 = assay: cells; format: functional, cell-based, Homo sapiens; details: Homo sapiens, HCT-116
Description: SANGER: Inhibition of human HCT-116 cell growth in a cell viability assay.

HEC-1 = assay: cells; format: functional, cell-based, Homo sapiens; details: Homo sapiens, HEC-1
Description: SANGER: Inhibition of human HEC-1 cell growth in a cell viability assay.

HGC-27 = assay: cells; format: functional, cell-based, Homo sapiens; details: Homo sapiens, HGC-27;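 further: growth inhibition of human HGC-27 cells, read out in a cell viability assay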
Description: SANGER: Inhibition of human HGC-27 cell growth in a cell viability assay.

IGR-1 = assay: cells; format: functional, cell-based, Homo sapiens; details: Homo sapiens, IGR-1;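 further: growth inhibition of human IGR-1 cells, read out with a cell viability assay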
Description: SANGER: Inhibition of human IGR-1 cell growth in a cell viability assay.

KOSC-2 = assay: cells; format: functional, cell-based, Homo sapiens; details: Homo sapiens, KOSC-2;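 further: growth inhibition of KOSC-2 cells, read out by a cell viability assay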
Description: SANGER: Inhibition of human KOSC-2 cell growth in a cell viability assay.

KYSE-520 cell line = assay: cells; format: functional, cell-based, Homo sapiens; details: Homo sapiens, KYSE-520;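 further: growth inhibition of human KYSE-520 cells, read out with a viability assay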
Description: SANGER: Inhibition of human KYSE-520 cell growth in a cell viability assay.

MDA-MB-175-VII = assay: cells; format: functional, cell-based, Homo sapiens; details: Homo sapiens, MDA-MB-175-VII
MDA-MB-231 = assay: cells; format: functional, cell-based, Homo sapiens; details: Homo sapiens, MDA-MB-231
Description: SANGER: Inhibition of human MDA-MB-231 cell growth in a cell viability assay.

MHH-ES-1 = assay: cells; format: functional, cell-based, Homo sapiens; details: Homo sapiens, MHH-ES-1
Description: SANGER: Inhibition of human MHH-ES-1 cell growth in a cell viability assay.

MONO-MAC-6 = assay: cells; format: functional, cell-based, Homo sapiens; details: Homo sapiens, MONO-MAC-6;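 further: cell viability assay measuring growth inhibition of human MONO-MAC-6 cells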
Description: SANGER: Inhibition of human MONO-MAC-6 cell growth in a cell viability assay.

NALM-6 = assay: cells; format: functional, cell-based, Homo sapiens; details: Homo sapiens, NALM-6;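 further: growth inhibition of NALM-6 cells, read out with a cell viability assay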
Description: SANGER: Inhibition of human NALM-6 cell growth in a cell viability assay.

NCI-H1573 = assay: cells; format: functional, cell-based, Homo sapiens; details: Homo sapiens, NCI-H1573;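 further: growth inhibition of NCI-H1573 cells, read out with a cell viability assay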
Description: SANGER: Inhibition of human NCI-H1573 cell growth in a cell viability assay.

NCI-H2087 = assay: cells; format: functional, cell-based, Homo sapiens; details: Homo sapiens, NCI-H2087;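 further: growth inhibition determined with a cell viability readout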
Description: SANGER: Inhibition of human NCI-H2087 cell growth in a cell viability assay.

NCI-H292 = assay: cells; format: functional, cell-based, Homo sapiens; details: Homo sapiens, NCI-H292;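 further: growth inhibition of NCI-H292 cells, read out with a cell viability assay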
Description: SANGER: Inhibition of human NCI-H292 cell growth in a cell viability assay.

NCI-H889 = assay: cells; format: functional, cell-based, Homo sapiens; details: Homo sapiens, NCI-H889
Description: SANGER: Inhibition of human NCI-H889 cell growth in a cell viability assay.

OVCAR-8 = assay: cells; format: functional, cell-based, Homo sapiens; details: Homo sapiens, OVCAR-8;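 further: growth inhibition of human OVCAR-8 cells, read out by a cell viability assay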
Description: SANGER: Inhibition of human OVCAR-8 cell growth in a cell viability assay.

P31-FUJ = assay: cells; format: functional, cell-based, Homo sapiens; details: Homo sapiens, P31-FUJ;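 further: growth inhibition of P31-FUJ cells, read out with a viability assay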
Description: SANGER: Inhibition of human P31-FUJ cell growth in a cell viability assay.

PANC-03-27 = assay: cells; format: functional, cell-based, Homo sapiens; details: Homo sapiens, PANC-03-27
Description: SANGER: Inhibition of human PANC-03-27 cell growth in a cell viability assay.

RPMI-6666 = assay: cells; format: functional, cell-based, Homo sapiens; details: Homo sapiens, RPMI-6666
Description: SANGER: Inhibition of human RPMI-6666 cell growth in a cell viability assay.

RPMI 8402 = assay: SANGER: Inhibition of human RPMI-8402 cell growth in a cell viability assay.; format: functional, cell-based; details: Homo sapiens, RPMI 8402; read-out: IC50
S-117 = assay: cells; format: functional, cell-based, Homo sapiens; details: Homo sapiens, S-117
Description: SANGER: Inhibition of human S-117 cell growth in a cell viability assay.

SCC-4 = assay: cells; format: functional, cell-based, Homo sapiens; details: Homo sapiens, SCC-4;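 further: growth inhibition of human SCC-4 cells, read out as cell viability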
Description: SANGER: Inhibition of human SCC-4 cell growth in a cell viability assay.

SIMA = assay: cells; format: functional, cell-based, Homo sapiens; details: Homo sapiens, SIMA;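 further: growth inhibition of SIMA cells, measured with a cell viability readout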
Description: SANGER: Inhibition of human SIMA cell growth in a cell viability assay.

SK-LU-1 = assay: cells; format: functional, cell-based, Homo sapiens; details: Homo sapiens, SK-LU-1;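 further: cell viability assay measuring growth inhibition of human SK-LU-1 cells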
Description: SANGER: Inhibition of human SK-LU-1 cell growth in a cell viability assay.

SNU-423 = assay: cells; format: functional, cell-based, Homo sapiens; details: Homo sapiens, SNU-423
Description: SANGER: Inhibition of human SNU-423 cell growth in a cell viability assay.

SNU-449 = assay: cells; format: functional, cell-based, Homo sapiens; details: Homo sapiens, SNU-449
Description: SANGER: Inhibition of human SNU-449 cell growth in a cell viability assay.

A-431 = assay: cells; format: functional, cell-based, Homo sapiens; details: Homo sapiens, A-431;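 further: growth inhibition of A-431 cells, determined with a cell viability read-out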
Description: SANGER: Inhibition of human A431 cell growth in a cell viability assay.

AGS = assay: cells; format: functional, cell-based, Homo sapiens; details: Homo sapiens, AGS;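 further: growth inhibition of AGS cells, determined with a cell viability assay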
Description: SANGER: Inhibition of human AGS cell growth in a cell viability assay.

BC1 cell line = assay: SANGER: Inhibition of human BC-1 cell growth in a cell viability assay.; format: functional, cell-based; details: Homo sapiens, BC1
BPH-1 = assay: cells; format: functional, cell-based, Homo sapiens; details: Homo sapiens, BPH-1;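 further: cell viability assay measuring growth inhibition of human BPH-1 cells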
Description: SANGER: Inhibition of human BPH-1 cell growth in a cell viability assay.

BXPC-3 = assay: cells; format: functional, cell-based, Homo sapiens; details: Homo sapiens, BXPC-3;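 further: growth inhibition of human BxPC-3 cells, read out by a cell viability assay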
Description: SANGER: Inhibition of human BxPC-3 cell growth in a cell viability assay.

C3A = assay: cells; format: functional, cell-based, Homo sapiens; details: Homo sapiens, C3A;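 further: growth inhibition of C3A human cells, quantified with a cell viability readout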
Description: SANGER: Inhibition of human C3A cell growth in a cell viability assay.

CA46 = assay: cells; format: functional, cell-based, Homo sapiens; details: Homo sapiens, CA46;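 further: growth inhibition of human CA46 cells, read out by a cell viability assay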
Description: SANGER: Inhibition of human CA46 cell growth in a cell viability assay.

CAKI-1 = assay: cells; format: functional, cell-based, Homo sapiens; details: Homo sapiens, CAKI-1;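 further: growth inhibition of CAKI-1 cells, measured by a cell viability assay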
Description: SANGER: Inhibition of human CAKI-1 cell growth in a cell viability assay.

U-251 = assay: cells; format: functional, cell-based, Homo sapiens; details: Homo sapiens, U-251;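 further: growth inhibition of human U-251 cells, read out through a cell viability assay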
Description: SANGER: Inhibition of human U251 cell growth in a cell viability assay.

YAPC = assay: cells; format: functional, cell-based, Homo sapiens; details: Homo sapiens, YAPC;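 further: growth inhibition of YAPC cells, measured with a cell viability assay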
Description: SANGER: Inhibition of human YAPC cell growth in a cell viability assay.

CHP-126 = assay: cells; format: functional, cell-based, Homo sapiens; details: Homo sapiens, CHP-126
Description: SANGER: Inhibition of human CHP-126 cell growth in a cell viability assay.

CMK = assay: cells; format: functional, cell-based, Homo sapiens; details: Homo sapiens, CMK
Description: SANGER: Inhibition of human CMK cell growth in a cell viability assay.

Cc1cc([N+](=O)[O-])ccc1NS(=O)(=O)c1cc(Cl)ccc1Cl
IC50 (DBTRG-05MG): 9110 nM
IC50 (Daoy): 4140 nM
IC50 (EFO-27): 4830 nM
IC50 (EGI-1): 24800 nM
IC50 (EVSA-T): 11900 nM
IC50 (HCC1395): 381 nM
IC50 (HCC1419): 3890 nM
IC50 (HCT-116): 3720 nM
IC50 (HEC-1): 8240 nM
IC50 (HGC-27): 4030 nM
IC50 (IGR-1): 2010 nM
IC50 (KOSC-2): > 32000 nM
IC50 (KYSE-520 cell line): 27600 nM
IC50 (MDA-MB-175-VII): 2020 nM
IC50 (MDA-MB-231): 14300 nM
IC50 (MHH-ES-1): 6430 nM
IC50 (MONO-MAC-6): 6180 nM
IC50 (NALM-6): 6280 nM
IC50 (NCI-H1573): > 32000 nM
IC50 (NCI-H2087): 2160 nM
IC50 (NCI-H292): 11300 nM
IC50 (NCI-H889): > 32000 nM
IC50 (OVCAR-8): 4260 nM
IC50 (P31-FUJ): 7770 nM
IC50 (PANC-03-27): 6380 nM
IC50 (RPMI-6666): 20200 nM
IC50 (RPMI 8402): 6850 nM
IC50 (S-117): < 125 nM
IC50 (SCC-4): 13800 nM
IC50 (SIMA): 13800 nM
IC50 (SK-LU-1): 3270 nM
IC50 (SNU-423): 7170 nM
IC50 (SNU-449): 5940 nM
IC50 (A-431): 2090 nM
IC50 (AGS): 5370 nM
IC50 (BC1 cell line): 3600 nM
IC50 (BPH-1): 12200 nM
IC50 (BXPC-3): 6840 nM
IC50 (C3A): 2240 nM
IC50 (CA46): 7160 nM
IC50 (CAKI-1): 13200 nM
IC50 (U-251): 2170 nM
IC50 (YAPC): > 32000 nM
IC50 (CHP-126): > 32000 nM
IC50 (CMK): 4810 nM

N#Cc1c(O)c2c(-c3ccc(-c4ccccc4O)cc3)csc2[nH]c1=O
IC50 (DBTRG-05MG): > 1020 nM
IC50 (Daoy): > 1020 nM
IC50 (EFO-27): > 1020 nM
IC50 (EGI-1): > 1020 nM
IC50 (EVSA-T): 381 nM
IC50 (HCC1395): > 1020 nM
IC50 (HCC1419): > 1020 nM
IC50 (HCT-116): > 1020 nM
IC50 (HEC-1): > 1020 nM
IC50 (HGC-27): > 1020 nM
IC50 (IGR-1): > 1020 nM
IC50 (KOSC-2): > 1020 nM
IC50 (KYSE-520 cell line): > 1020 nM
IC50 (MDA-MB-175-VII): > 1020 nM
IC50 (MDA-MB-231): > 1020 nM
IC50 (MHH-ES-1): > 1020 nM
IC50 (MONO-MAC-6): 114 nM
IC50 (NALM-6): 31.7 nM
IC50 (NCI-H2087): 214 nM
IC50 (NCI-H292): > 1020 nM
IC50 (NCI-H889): > 1020 nM
IC50 (OVCAR-8): > 1020 nM
IC50 (P31-FUJ): > 1020 nM
IC50 (PANC-03-27): > 1020 nM
IC50 (RPMI-6666): 68 nM
IC50 (RPMI 8402): 442 nM
IC50 (S-117): > 1020 nM
IC50 (SCC-4): > 1020 nM
IC50 (SIMA): > 1020 nM
IC50 (SK-LU-1): > 1020 nM
IC50 (SNU-423): > 1020 nM
IC50 (SNU-449): > 1020 nM
IC50 (A-431): 29.2 nM
IC50 (AGS): > 1020 nM
IC50 (BC1 cell line): 69.7 nM
IC50 (BPH-1): > 1020 nM
IC50 (BXPC-3): > 1020 nM
IC50 (C3A): > 1020 nM
IC50 (CA46): 196 nM
IC50 (CAKI-1): > 1020 nM
IC50 (U-251): > 1020 nM
IC50 (YAPC): > 1020 nM
IC50 (CHP-126): 269 nM
IC50 (CMK): 2.2 nM

COc1cccc2c1C(=O)c1c(O)c3c(c(O)c1C2=O)C[C@@](O)(C(=O)CO)C[C@@H]3O[C@H]1C[C@H](N)[C@H](O)[C@H](C)O1 [DOXORUBICIN]
IC50 (DBTRG-05MG): 67.1 nM
IC50 (Daoy): 8.07 nM
IC50 (EFO-27): 97.4 nM
IC50 (EGI-1): 598 nM
IC50 (EVSA-T): > 1020 nM
IC50 (HCC1395): > 1020 nM
IC50 (HCC1419): 632 nM
IC50 (HEC-1): 183 nM
IC50 (HGC-27): 13.6 nM
IC50 (IGR-1): 33.9 nM
IC50 (KOSC-2): 249 nM
IC50 (KYSE-520 cell line): 261 nM
IC50 (MDA-MB-175-VII): 972 nM
IC50 (MDA-MB-231): > 1020 nM
IC50 (MHH-ES-1): 21.6 nM
IC50 (MONO-MAC-6): 154 nM
IC50 (NALM-6): 18.6 nM
IC50 (NCI-H1573): > 1020 nM
IC50 (NCI-H2087): 49.4 nM
IC50 (NCI-H292): 43.8 nM
IC50 (NCI-H889): > 1020 nM
IC50 (OVCAR-8): 61.9 nM
IC50 (P31-FUJ): > 1020 nM
IC50 (PANC-03-27): 28.2 nM
IC50 (RPMI-6666): 66 nM
IC50 (RPMI 8402): 53.9 nM
IC50 (S-117): > 1020 nM
IC50 (SCC-4): 184 nM
IC50 (SIMA): 382 nM
IC50 (SK-LU-1): 12.5 nM
IC50 (SNU-423): 155 nM
IC50 (SNU-449): 548 nM
IC50 (A-431): 20.9 nM
IC50 (AGS): 13.3 nM
IC50 (BC1 cell line): 86.8 nM
IC50 (BPH-1): 22.1 nM
IC50 (BXPC-3): 211 nM
IC50 (C3A): 416 nM
IC50 (CA46): 137 nM
IC50 (CAKI-1): 375 nM
IC50 (U-251): 64.9 nM
IC50 (YAPC): > 1020 nM
IC50 (CHP-126): 59.2 nM
IC50 (CMK): 77.4 nM

Reference: ChEMBL document CHEMBL1201861, “Genomics of Drug Sensitity in Cancer screening data, Wellcome Trust Sanger Institute”
